Data reported in publication PMC10247784, “Physiological activation of human and mouse bitter taste receptors by bile acids” (Communications Biology, 2023).

Target: T1, mouse Tas2r117 (Mus musculus, UniProt Q7M715)
T1 construct: expressed in transfected cells; host or cells: HEK293T-Gα16gust44
T1 sequence (Q7M715 1-330): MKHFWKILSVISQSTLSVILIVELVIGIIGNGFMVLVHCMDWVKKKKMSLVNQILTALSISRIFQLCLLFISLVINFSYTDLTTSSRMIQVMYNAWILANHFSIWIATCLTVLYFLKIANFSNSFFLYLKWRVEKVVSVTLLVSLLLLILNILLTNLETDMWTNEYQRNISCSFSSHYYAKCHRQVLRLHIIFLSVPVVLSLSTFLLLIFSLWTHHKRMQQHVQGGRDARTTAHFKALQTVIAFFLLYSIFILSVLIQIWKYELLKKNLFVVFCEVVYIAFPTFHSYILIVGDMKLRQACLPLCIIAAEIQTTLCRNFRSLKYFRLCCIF
Assay: Calcium imaging assay (FLIPR), HEK293T-Gα16gust44 cells transfected with mouse Tas2r117
Format: cell-based
Settings: for Δ F/F: Tas2r117; for RLU: sheet Tas2r117, time trace
Description: This set of bile acids was chosen because of their commercial availability in high purities, their diversity within the class of bile acids and their previous detection and quantitation in human blood. Stock solutions were prepared in DMSO.
As basal growth medium for the HEK293T-Gα16gust44 cell line[17],[59] served Dulbecco’s modified eagle medium (DMEM) (Thermo Fisher Scientific, Darmstadt, Germany) supplemented with 10 % fetal bovine serum (Sigma-Aldrich, Steinheim, Germany), 2 mM L-glutamine (Sigma-Aldrich, Steinheim, Germany), 100 units/ml penicillin (Sigma Aldrich, Steinheim, Germany) and 100 µg/ml streptomycin (Sigma Aldrich, Steinheim, Germany). Growth conditions were 37 °C, 5 % CO2 and saturated air-humidity[60].
HEK293T-Gα16gust44 cells were seeded on poly-D-lysine (10 µg/ml) coated 96-well plates to reach a confluence of 40-60 % the next day. For transient transfection 150 ng of plasmid DNA containing the receptor of interest and 0.3 µl lipofectamine 2000 (Thermo Fisher Scientific, Darmstadt, Germany) per well were used and transfection took place according to the manual of lipofectamine 2000. […] The empty vector DNA (mock) was transfected as negative control[14],[41].
Cells were loaded using the calcium-sensitive fluorescent dye Fluo-4-AM (Abcam, Cambridge, Great Britain) in the presence of 2.5 mM probenecid (Sigma-Aldrich, Steinheim, Germany) the day after transfection[13],[41]. 1 h after loading, cells were washed with C1 buffer using a BioTek Cell Washer, incubated in the dark for half an hour and washed again. For automated agonist application and measurement of fluorescence changes, a FLIPR^TETRA device (Molecular Devices, San José, United States) was used. Viability of cells was tested by application of 100 nM Somatostatin 14 (Bachem, Bubendorf, Switzerland)[42].
Measured data were negative control corrected by subtracting the signal of the mock-transfected cells and exported to Microsoft Excel using the FLIPR software ScreenWorks 4.2. In Microsoft Excel software, standardization of maximum fluorescence intensities to the basal fluorescence and normalization to the buffer-only control was done to calculate the relative fluorescence changes (ΔF/F).
Initial screening experiments performed in duplicate wells were confirmed by at least one replication and representative traces were selected for display. All dose-response relationships were determined by three independent experiments (biological replicates) performed in duplicates (technical replicates). Threshold concentrations, defined as lowest substance concentrations leading to statistically significant elevated fluorescence changes in receptor-transfected cells compared with empty vector-transfected cells, were determined using SigmaPlot with Student’s t-test to evaluate statistical significance (p < 0.01).

For C[C@H](CCC(=O)NCCS(=O)(=O)O)[C@H]1CC[C@H]2[C@@H]3[C@H](O)C[C@@H]4C[C@H](O)CC[C@]4(C)[C@H]3C[C@H](O)[C@]12C [Taurocholic Acid, taurocholic acid], the EC50 was 37.4 ± 7.3 µM, the “Δ F/F” value (conc. 0,01 mM) was 0.02164 and the “Δ F/F” value (conc. 0,1 mM) was 0.0925. For the same compound, the “Δ F/F” value (conc. 0,03 mM) was 0.05976, the “Δ F/F” value (conc. 0,3 mM) was 0.1209 and the “Δ F/F” value (conc. 0,0003 mM) was -0.001001. For the same compound, the “Δ F/F” value (conc. 0,001 mM) was -0.004431, the “Δ F/F” value (conc. 0,003 mM) was 0.00222 and the RLU (Time (s) 0) was 0 RLU. The RLU (Time (s) 2) was 37 RLU, the RLU (Time (s) 4) was -4.077 RLU and the RLU (Time (s) 6) was 12.5668 RLU. The RLU (Time (s) 8) was 5.638 RLU, the RLU (Time (s) 12) was -15.6594 RLU and the RLU (Time (s) 14) was 17.1601 RLU. For the same compound, the RLU (Time (s) 16) was -10.5322 RLU, the RLU (Time (s) 18) was -8.953 RLU and the RLU (Time (s) 18.797) was 34.4566 RLU. For the same compound, the RLU (Time (s) 20.797) was 16.7527 RLU, the RLU (Time (s) 22.797) was -7.054 RLU and the RLU (Time (s) 24.797) was 38.2926 RLU. For the same compound, the RLU (Time (s) 26.797) was 125.403 RLU, the RLU (Time (s) 28.797) was 141.128 RLU and the RLU (Time (s) 30.797) was 183.922 RLU. It also gave an RLU (Time (s) 32.797) of 250.112 RLU, an RLU (Time (s) 34.797) of 267.824 RLU and an RLU (Time (s) 36.797) of 315.731 RLU. It also gave an RLU (Time (s) 38.797) of 324.81 RLU, an RLU (Time (s) 40.797) of 359.212 RLU and an RLU (Time (s) 42.797) of 402.392 RLU. It also gave an RLU (Time (s) 44.797) of 440.644 RLU, an RLU (Time (s) 46.797) of 454.758 RLU and an RLU (Time (s) 48.797) of 463.447 RLU. The RLU (Time (s) 50.797) was 471.258 RLU, the RLU (Time (s) 52.797) was 487.155 RLU and the RLU (Time (s) 54.797) was 505.642 RLU. For the same compound, the RLU (Time (s) 56.797) was 516.341 RLU, the RLU (Time (s) 58.797) was 527.833 RLU and the RLU (Time (s) 60.797) was 539.947 RLU. The RLU (Time (s) 62.797) was 536.466 RLU, the RLU (Time (s) 64.797) was 575.129 RLU and the RLU (Time (s) 66.797) was 570.621 RLU. The RLU (Time (s) 68.797) was 568.562 RLU, the RLU (Time (s) 70.797) was 591.97 RLU and the RLU (Time (s) 72.797) was 606.798 RLU. It also gave an RLU (Time (s) 74.797) of 593.706 RLU, an RLU (Time (s) 76.797) of 614.892 RLU and an RLU (Time (s) 78.797) of 632.141 RLU. The RLU (Time (s) 80.797) was 632.141 RLU, the RLU (Time (s) 82.797) was 632.241 RLU and the RLU (Time (s) 84.797) was 611.445 RLU. It also gave an RLU (Time (s) 86.797) of 626.947 RLU, an RLU (Time (s) 88.797) of 643.242 RLU and an RLU (Time (s) 90.797) of 605.466 RLU. For the same compound, the RLU (Time (s) 92.797) was 611.522 RLU, the RLU (Time (s) 94.797) was 620.11 RLU and the RLU (Time (s) 96.797) was 645.547 RLU. The RLU (Time (s) 98.797) was 644.046 RLU, the RLU (Time (s) 100.797) was 637.565 RLU and the RLU (Time (s) 102.797) was 626.02 RLU. It also gave an RLU (Time (s) 104.797) of 634.671 RLU, an RLU (Time (s) 106.797) of 616.97 RLU and an RLU (Time (s) 108.797) of 624.712 RLU. It also gave an RLU (Time (s) 110.797) of 625.807 RLU, an RLU (Time (s) 112.797) of 626.586 RLU and an RLU (Time (s) 114.797) of 603.263 RLU. It also gave an RLU (Time (s) 116.797) of 606.551 RLU, an RLU (Time (s) 118.797) of 596.327 RLU and an RLU (Time (s) 120.797) of 576.654 RLU. The RLU (Time (s) 122.797) was 563.677 RLU, the RLU (Time (s) 124.797) was 585.101 RLU and the RLU (Time (s) 126.797) was 566.056 RLU. It also gave an RLU (Time (s) 128.797) of 584.636 RLU, an RLU (Time (s) 130.797) of 552.659 RLU and an RLU (Time (s) 132.797) of 568.02 RLU. The RLU (Time (s) 134.797) was 561.297 RLU, the RLU (Time (s) 136.797) was 551.223 RLU and the RLU (Time (s) 137.562) was 556.479 RLU. The RLU (Time (s) 143.578) was 502.769 RLU, the RLU (Time (s) 149.578) was 498.126 RLU and the RLU (Time (s) 155.578) was 490.146 RLU. It also gave an RLU (Time (s) 161.578) of 459.867 RLU, an RLU (Time (s) 167.578) of 446.745 RLU and an RLU (Time (s) 173.578) of 415.03 RLU. For the same compound, the RLU (Time (s) 179.578) was 413.791 RLU, the RLU (Time (s) 191.578) was 382.098 RLU and the RLU (Time (s) 197.578) was 382.449 RLU. The RLU (Time (s) 209.578) was 344.754 RLU, the RLU (Time (s) 221.578) was 256.376 RLU and the RLU (Time (s) 233.578) was 235.774 RLU. The RLU (Time (s) 239.578) was 212.664 RLU, the RLU (Time (s) 245.578) was 220.667 RLU and the RLU (Time (s) 293.578) was 147.781 RLU. It also gave an RLU (Time (s) 299.578) of 155.364 RLU, an RLU (Time (s) 305.578) of 177.719 RLU and an RLU (Time (s) 311.578) of 178.93 RLU. It also gave an RLU (Time (s) 317.578) of 167.01 RLU, an RLU (Time (s) 323.578) of 136.818 RLU and an RLU (Time (s) 329.578) of 148.504 RLU. The RLU (Time (s) 335.578) was 153.255 RLU, the RLU (Time (s) 341.578) was 110.601 RLU and the RLU (Time (s) 347.578) was 112.243 RLU. The RLU (Time (s) 353.578) was 94.0464 RLU, the RLU (Time (s) 359.578) was 105.186 RLU and the “Activation threshold concentration Tas2r117” value (p < 0.01 vs empty vector) was 30 µM.
